Source: patent US20160016916A1, “Exo Olefin-Containing Nuclear Transport Modulators and Uses Thereof” (KARYOPHARM THERAPEUTICS INC., priority 2013, published 2016)

How the values were obtained:
MM1.S cells = experiment: CellTiter 96 AQueous One Solution cell proliferation assay (MTS); format: cell-based; settings: Homo sapiens, 72 h of treatment, MTS absorbance at 490 nm
Source text: The CellTiter 96® AQueous One Solution cell proliferation assay (Promega) was used on MM1.S cells to study the cytotoxic and cytostatic properties of the compounds. The assay is based on the cleavage of the tetrazolium salt, MTS, in the presence of an electron-coupling reagent PES (phenazine ethosulfate). The MTS tetrazolium compound is bioreduced by cells into a colored formazan product that is soluble in tissue culture medium. This conversion is presumably accomplished by NADPH or NADH produced by dehydrogenase enzymes in metabolically active cells. Assays are performed by adding a small amount of the CellTiter 96® AQueous One solution reagent directly to culture wells, incubating for 1-4 hours and then recording the absorbance at 490 nm with a 96-well plate reader.
The cells were seeded at 5×10^3 to 1.5×10^4 cells (depending on cell type) in each well of 96-well plate in 100 μL of fresh culture medium and adherent cells were allowed to attach for overnight. The stock solutions of the compounds were diluted in cell culture medium to obtain eight concentrations of each drug, ranging from 1 nM to 30 μM and DMSO at less than 1% v/v was used as a negative control. After 72 h of treatment, 20 μL of CellTiter 96® AQueous reagent was added into each well of the 96-well assay plates and the plate was incubate at 37° C. for 1-4 hours in a humidified, 5% CO2 atmosphere. Then the absorbance of each well was recorded at 490 nm by using a 96-well plate reader. In most cases, the assay was performed in triplicates and the results were presented as half maximal inhibitory concentration (IC50). Optical density versus compound concentration was plotted and analyzed using non linear regression equations (Excel Fit) and the IC50 for each compound was calculated.

CRM1 = target: T1, CRM1 (Homo sapiens, UniProt O14980); experiment: CRM1-mediated nuclear export assay (GFP nuclear localization in HeLa cells); format: cell-based; settings: HeLa cells expressing NLS-GFP-NES(PKI), 3 hours, concentration at which approximately 50% of the cells showed nuclear GFP
T1 construct: HeLa cells expressing GFP that was N-terminally fused to a nuclear localization and C-terminally fused to the nuclear export signal of PKI; endogenous in cells; host or cells: HeLa cells expressing an NLS-GFP-NES(PKI) reporter
Method: HeLa cells expressing GFP that was N-terminally fused to a nuclear localization and C-terminally fused to the nuclear export signal of PKI were treated with different concentrations of test compounds for 3 hours and then scored for nuclear localization of GFP.
HeLa cells were cultured in Dulbecco's modified Eagle's medium (DMEM) supplemented with 10% (vol/vol) heat-inactivated fetal calf serum, 2 mM L-glutamine 0.1% sodium bicarbonate, and 20 μg/ml gentamicin. The cells were plated in 96-well plates at 0.02×10^6 cells/well and incubated overnight. The next day, compound was added to the cells and incubated for another 3 hours. After 3 hours, GFP subcellular localization was monitored using a Leica DMI6000 microscope.

T1 sequence (O14980 whole entry, the tested form may be a part): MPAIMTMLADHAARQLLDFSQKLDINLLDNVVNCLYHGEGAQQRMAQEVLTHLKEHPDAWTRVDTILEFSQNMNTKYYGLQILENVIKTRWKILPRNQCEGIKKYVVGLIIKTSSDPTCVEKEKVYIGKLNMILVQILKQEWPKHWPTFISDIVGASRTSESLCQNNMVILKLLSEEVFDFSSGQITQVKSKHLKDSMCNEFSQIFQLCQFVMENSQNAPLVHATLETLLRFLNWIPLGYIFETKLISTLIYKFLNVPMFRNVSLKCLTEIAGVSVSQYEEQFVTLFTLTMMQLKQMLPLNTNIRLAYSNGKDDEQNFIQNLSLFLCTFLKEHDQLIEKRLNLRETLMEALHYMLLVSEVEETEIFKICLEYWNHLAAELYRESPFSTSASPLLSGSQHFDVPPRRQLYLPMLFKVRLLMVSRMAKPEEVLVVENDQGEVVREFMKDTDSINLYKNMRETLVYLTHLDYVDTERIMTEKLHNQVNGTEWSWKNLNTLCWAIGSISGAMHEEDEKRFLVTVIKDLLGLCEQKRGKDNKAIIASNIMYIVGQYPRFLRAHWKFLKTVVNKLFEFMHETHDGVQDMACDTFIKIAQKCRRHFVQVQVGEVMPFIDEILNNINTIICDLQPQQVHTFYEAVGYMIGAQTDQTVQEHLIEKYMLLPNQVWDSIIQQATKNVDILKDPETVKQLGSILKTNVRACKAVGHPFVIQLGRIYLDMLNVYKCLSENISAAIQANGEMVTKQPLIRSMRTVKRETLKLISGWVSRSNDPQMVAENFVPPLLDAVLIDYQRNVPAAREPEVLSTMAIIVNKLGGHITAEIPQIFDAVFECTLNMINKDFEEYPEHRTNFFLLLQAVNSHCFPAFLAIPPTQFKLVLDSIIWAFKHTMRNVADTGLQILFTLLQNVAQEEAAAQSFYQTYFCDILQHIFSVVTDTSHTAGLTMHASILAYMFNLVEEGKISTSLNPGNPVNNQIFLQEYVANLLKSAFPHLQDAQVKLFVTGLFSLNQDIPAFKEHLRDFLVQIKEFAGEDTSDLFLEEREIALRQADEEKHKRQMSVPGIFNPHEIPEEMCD

IC50 (MM1.S cells)	EC50 (CRM1)	SMILES
50 nM	1800 nM	C=C(Cn1cnc(-c2cc(OC)cc(C(F)(F)F)c2)n1)C(=O)OC(C)C [Compound 3, isopropyl 2-((3-(3-methoxy-5-(trifluoromethyl)phenyl)-1H-1,2,4-triazol-1-yl)methyl)acrylate]
–	3800 nM	C=C(Cn1cnc(-c2cc(OC)cc(C(F)(F)F)c2)n1)C(=O)OCC [Compound 4, ethyl 2-((3-(3-methoxy-5-(trifluoromethyl)phenyl)-1H-1,2,4-triazol-1-yl)methyl)acrylate]
90 nM	1800 nM	C=C(Cn1cnc(-c2cc(C(F)(F)F)cc(C(F)(F)F)c2)n1)C(=O)N1CC(F)(F)C1 [Compound 5, 2-((3-(3,5-bis(trifluoromethyl)phenyl)-1H-1,2,4-triazol-1-yl)methyl)-1-(3,3-difluoroazetidin-1-yl)prop-2-en-1-one]
70 nM	900 nM	C=C(Cn1cnc(-c2cc(C(F)(F)F)cc(C(F)(F)F)c2)n1)C(=O)NNc1ccccn1 [Compound 6, 2-((3-(3,5-bis(trifluoromethyl)phenyl)-1H-1,2,4-triazol-1-yl)methyl)-N′-(pyridin-2-yl)acrylohydrazide]
10 nM	–	C=C(Cn1cnc(-c2cc(C(F)(F)F)cc(C(F)(F)F)c2)n1)C(=O)NNc1cnccn1 [Compound 7, 2-((3-(3,5-bis(trifluoromethyl)phenyl)-1H-1,2,4-triazol-1-yl)methyl)-N′-(pyrazin-2-yl)acrylohydrazide]
30 nM	230 nM	C=C(Cn1cnc(-c2cc(C(F)(F)F)cc(C(F)(F)F)c2)n1)c1nnco1 [Compound 8, 2-(3-(3-(3,5-bis(trifluoromethyl)phenyl)-1H-1,2,4-triazol-1-yl)prop-1-en-2-yl)-1,3,4-oxadiazole]
–	15000 nM	C=C(Cn1nnc(-c2ccccc2)n1)c1nnco1 [Compound 9, 2-(3-(5-phenyl-2H-tetrazol-2-yl)prop-1-en-2-yl)-1,3,4-oxadiazole]
–	> 30000 nM	C=C(Cn1nnc(-c2ccccc2)n1)C(=O)N1CCCCC1 [Compound 10, 2-((5-phenyl-2H-tetrazol-2-yl)methyl)-1-(piperidin-1-yl)prop-2-en-1-one]
–	15000 nM	C=C(Cn1nnc(-c2cc(C(F)(F)F)cc(C(F)(F)F)c2)n1)C(=O)OC(C)C [Compound 11, isopropyl 2-((5-(3,5-bis(trifluoromethyl)phenyl)-2H-tetrazol-2-yl)methyl)acrylate]

SMILES	IC50 (MM1.S cells)	EC50 (CRM1)
C=C(Cn1cnc(-c2cc(C(F)(F)F)cc(C(F)(F)F)c2)n1)C(=O)OC(C)C [Compound 1, isopropyl 2-((3-(3,5-bis(trifluoromethyl)phenyl)-1H-1,2,4-triazol-1-yl)methyl)acrylate]	100 nM	900 nM
